Assay results published in US20050095278A1, “Use of nitroglycerin to relieve nocturnal muscle cramps” (priority 2003, published 2005).

Tested on: patients with nocturnal leg muscle cramps
Assay: Topically applied nitroglycerin (transdermal patch) in ten patients with nocturnal leg muscle cramps
Format: in vivo, human
Excerpt: The following Examples show the successful use of topically applied nitroglycerin in treating ten patients with nocturnal leg muscle cramps.

## O=[N+]([O-])OCC(CO[N+](=O)[O-])O[N+](=O)[O-] [nitroglycerin]
Small amounts of nitroglycerin, even once daily
  relief in the frequency and severity of nocturnal muscle cramping (summary of the ten patients): moderate to significant relief
Topically applied by a transdermal patch to the lower extremity
  relieving pain and cramping associated with nocturnal muscle cramps (observation): effective in relieving pain and cramping
Transdermal delivery at a rate of about 0.1 mg/hr
  relief of pain and cramping associated with muscle cramps (early studies): sufficient for relief of pain and cramping
